Reference: patent US20240116985A1, “STAPLED PEPTIDES AND METHODS THEREOF” (priority 2020, published 2024)
Values joined by “and” are separate entries in the source; they are usually repeats but may differ in a detail not shown here. Equal entries are not always repeated. Where two headings read alike, the source gives them in different places.

What was measured:
[1] = molecular target: T1, full-length beta-Catenin (Uniprot ID P35222) (Homo sapiens, UniProt P35222); test: Fluorescence polarization IC50 (beta-catenin / 5FAM-TCF4 10-53 competition); type: binding
T1 construct: 10 nM full-length beta-Catenin (Uniprot ID P35222)
T1 sequence (P35222 1-781): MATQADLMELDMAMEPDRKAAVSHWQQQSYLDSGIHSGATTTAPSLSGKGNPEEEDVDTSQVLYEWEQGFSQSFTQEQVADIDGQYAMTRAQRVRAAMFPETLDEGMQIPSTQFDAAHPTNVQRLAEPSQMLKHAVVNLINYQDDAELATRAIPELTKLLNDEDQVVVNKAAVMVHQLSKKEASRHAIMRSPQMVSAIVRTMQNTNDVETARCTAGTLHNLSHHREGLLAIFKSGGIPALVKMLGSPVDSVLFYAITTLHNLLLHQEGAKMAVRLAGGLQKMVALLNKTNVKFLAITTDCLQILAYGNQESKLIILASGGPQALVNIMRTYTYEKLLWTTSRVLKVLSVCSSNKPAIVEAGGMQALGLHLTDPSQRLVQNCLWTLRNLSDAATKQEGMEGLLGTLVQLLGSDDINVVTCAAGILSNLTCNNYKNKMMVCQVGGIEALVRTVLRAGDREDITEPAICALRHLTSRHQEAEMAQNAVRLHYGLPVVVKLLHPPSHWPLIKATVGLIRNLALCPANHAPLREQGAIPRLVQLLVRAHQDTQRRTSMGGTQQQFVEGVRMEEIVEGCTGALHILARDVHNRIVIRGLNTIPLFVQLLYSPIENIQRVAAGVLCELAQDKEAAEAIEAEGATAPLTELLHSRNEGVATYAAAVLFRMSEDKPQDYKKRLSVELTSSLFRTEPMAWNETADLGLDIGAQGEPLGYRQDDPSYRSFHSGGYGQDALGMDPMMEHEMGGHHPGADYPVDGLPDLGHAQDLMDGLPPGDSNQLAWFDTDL

CHI Log D procedure = type: physicochemical; conditions: for CHI Log D / logD: pH 7.4; for chromatographic logD: pH 7.4, CHI Log D
[2] = molecular target: T2, beta-catenin/TCF4 engagement (Homo sapiens, UniProt P35222); test: Nano-BRET target engagement assay (B-cat-Halo & TCF4-Luc in HEK293 cells); type: cell-based
T2 construct: expressed in transfected cells; host or cells: HEK293
T2 sequence (P35222 1-781): T1 sequence (P35222 1-781)

[3] = system: TCF/LEF luciferase Reporter in DLD1 cells; test: TCF reporter assay (DLD1 TCF/LEF luciferase reporter, Bright-Glo); type: cell-based; conditions: for DLD1 TCF c2 BrightGlo % Inhibition: replicates
Method in brief: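 Readouts: Bright-Glo luciferase for reporter signal and CellTiter-Glo for cell viability, with absolute IC50 derived. The reporter clone came from lentiviral TCF/LEF-luciferase transduction of DLD1 cells, seeded 5000 cells/well in RPMI with 4% FBS and exposed overnight to serially diluted compounds.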

[4] = Abs IC50, read-out: DLD1 reporter assay Abs IC50
[5] = first dose = 20 uM (plate map), 20 µM
[6] = read-out: DLD1 4% Abs IC50, DLD1 4%
[7] = third dose = 5 uM (plate map), 5 µM
[8] = absolute IC50, read-out: NanoBRET Abs IC50
[9] = absolute IC50, read-out: DLD1 reporter assay Abs IC50
[10] = fluorescence polarization, beta-catenin, read-out: FP EC50
[11] = Peptide + ST-Protein (SAINT-Protein lipid)
[12] = fluorescence polarization, read-out: beta-Catenin FP IC50
[13] = read-out: DLD1 4% Abs IC50, DLD1 reporter, 4%, absolute IC50

IC50 ([1]; read-out: beta-Catenin FP IC50) [nM]	CHI Log D (CHI Log D procedure)	chromatographic logD (CHI Log D procedure)	IC50 [2, 8] [µM]	IC50 [3, 9] [µM]	Structure (SMILES)	DLD1 TCF c2 BrightGlo % Inhibition [3, 5]	DLD1 TCF c2 BrightGlo % Inhibition ([3]; 0.625 µM)	DLD1 TCF c2 BrightGlo % Inhibition ([3]; 1.25 µM)	DLD1 TCF c2 BrightGlo % Inhibition ([3]; 2.5 µM)	DLD1 TCF c2 BrightGlo % Inhibition ([3]; 10 µM)	DLD1 TCF c2 BrightGlo % Inhibition [3, 7]	other results
5	2.247	–	–	–	CC(=O)N1CCC[C@]12CC=CCCCC1(CCCC=CCCCOC(=O)N3CC[C@@](C(=O)N[C@@H](Cc4ccsc4)C(=O)N[C@@H](Cc4csc5ccccc45)C(=O)N[C@@H](CCC(N)=O)C(N)=O)(C3)NC(=O)[C@H](CC(N)=O)NC(=O)[C@H](Cc3ccccc3)NC(=O)[C@H](C)NC(=O)[C@H](C)NC(=O)[C@H](CN(CC(=O)O)CC(F)(F)F)NC(=O)[C@H](CC(=O)O)NC1=O)NC(=O)[C@H](CC(C)(C)C)NC(=O)[C@H](CC(=O)O)NC2=O (single isomer, unassigned) [I-762, Ac-PL3-Asp-Npg-B5-Asp-TfeGA-Ala-Ala-Phe-Asn-PyrS2-3Thi-BztA-Gln-NH2]	75.7% and 81.9% and 78.7%	14.5% and 18.6% and 9.3%	12.9% and 16.9% and 5.5%	12.9% and 17.4% and 11.9%	56.8% and 70.2% and 65.6%	28.2% and 45.2% and 44.6%	IC50 ([1]; read-out: FP EC50): 6 nM; IC50 ([1]; read-out: bCat FP IC50): 6 nM; logD (CHI Log D procedure): 2.2; IC50 ([2]; Abs IC50, read-out: NanoBRET Abs IC50): 10 µM; IC50 ([2]; Peptide + ST-Protein (SAINT-Protein lipid), read-out: Nano-BRET Abs IC50): 0.7 µM; IC50 ([2]; Peptide only, read-out: Nano-BRET Abs IC50): 11 µM; IC50 ([2]; read-out: NanoBRET Abs IC50): 14 µM; IC50 [3, 4]: 6 µM; IC50 ([3]; Peptide + ST-Protein (SAINT-Protein lipid), read-out: TCF Reporter Assay Abs IC50): 0.3 µM; IC50 ([3]; Peptide only, read-out: TCF Reporter Assay Abs IC50): 7 µM; IC50 [3, 6]: 7.9 µM
–	1.997	–	–	–	CC(=O)N1CCC[C@]12CC=CCCCC1(CCCC=CCCCOC(=O)N3CC[C@@](C(=O)N[C@@H](Cc4ccsc4)C(=O)N[C@@H](Cc4csc5ccccc45)C(=O)N[C@@H](CCC(N)=O)C(N)=O)(C3)NC(=O)[C@H](CC(N)=O)NC(=O)[C@H](Cc3ccccc3)NC(=O)[C@H](C)NC(=O)[C@H](C)NC(=O)[C@H](CC(=O)O)NC(=O)[C@H](CC(=O)O)NC1=O)NC(=O)[C@H](CC(C)(C)C)NC(=O)[C@H](CC(=O)O)NC2=O (stereo partly drawn) [I-686, Ac-PL3-Asp-Npg-B5-Asp-Asp-Ala-Ala-Phe-Asn-PyrS2-3Thi-BztA-Gln-NH2]	–	–	–	–	–	–	logD (CHI Log D procedure): 2.0; IC50 [3, 4]: 5.6 µM
7	–	2.4	2.8	–	CC(=O)N1CCC[C@]12CC=CCCCC1(CCCC=CCCCOC(=O)N3CC[C@@](C(=O)N[C@@H](Cc4ccsc4)C(=O)N[C@@H](Cc4csc5ccccc45)C(=O)N[C@@H](CCC(N)=O)C(N)=O)(C3)NC(=O)[C@H](Cc3ccccc3)NC(=O)[C@H](Cc3ccccc3)NC(=O)[C@H](C)NC(=O)[C@H](C)NC(=O)[C@H](Cc3cccc(C(=O)O)c3)NC(=O)[C@H](CC(=O)O)NC1=O)NC(=O)[C@H](CC(C)(C)C)NC(=O)[C@H](CC(=O)O)NC2=O (stereo partly drawn) [I-852, Ac-PL3-Asp-Npg-B5-Asp-3COOHF-Ala-Ala-Phe-Phe-PyrS2-3Thi-BztA-Gln-NH2]	–	–	–	–	–	–	IC50 [3, 6]: 1.4 µM
7	–	2.28	3.3	4.5	CC(=O)N1CCC[C@]12CC=CCCCC1(CCCC=CCCCOC(=O)N3CC[C@@](C(=O)N[C@@H](Cc4ccccc4Br)C(=O)N[C@@H](Cc4csc5ccccc45)C(=O)N[C@@H](CCC(N)=O)C(N)=O)(C3)NC(=O)[C@H](CC(N)=O)NC(=O)[C@H](Cc3ccccc3)NC(=O)[C@H](C)NC(=O)[C@H](C)NC(=O)[C@H](CN(CC(=O)O)CC(F)(F)F)NC(=O)[C@H](CC(=O)O)NC1=O)NC(=O)[C@H](CC(C)(C)C)NC(=O)[C@H](CC(=O)O)NC2=O (stereo partly drawn) [I-924, Ac-PL3-Asp-Npg-B5-Asp-TfeGA-Ala-Ala-Phe-Asn-PyrS2-2BrF-BztA-Gln-NH2]	–	–	–	–	–	–	–
11	2.313	–	8.2	4.2	CC(=O)N1CCC[C@]12CC=CCCCC1(CCCC=CCCCOC(=O)N3CC[C@@](C(=O)N[C@@H](Cc4ccccc4C(F)(F)F)C(=O)N[C@@H](Cc4csc5ccccc45)C(=O)N[C@@H](CCC(N)=O)C(N)=O)(C3)NC(=O)[C@H](CC(N)=O)NC(=O)[C@H](Cc3ccccc3)NC(=O)[C@H](C)NC(=O)[C@H](C)NC(=O)[C@H](CN(CC(=O)O)CC(F)(F)F)NC(=O)[C@H](CC(=O)O)NC1=O)NC(=O)[C@H](CC(C)(C)C)NC(=O)[C@H](CC(=O)O)NC2=O (stereo partly drawn) [I-927, Ac-PL3-Asp-Npg-B5-Asp-TfeGA-Ala-Ala-Phe-Asn-PyrS2-2F3MeF-BztA-Gln-NH2]	77.1% and 77.4% and 80.3%	3.5% and 8.0% and 14.3%	8.7% and 15.1% and 18.6%	23.9% and 33.7% and 42.0%	68.0% and 70.2% and 72.9%	53.1% and 55.2% and 60.1%	IC50 [1, 10]: 11 nM; IC50 ([2]; read-out: NanoBRET Abs IC50): 8.2 µM
7220	–	1.89	> 20	> 20	CC(=O)N1CCC[C@]12CC=CCCCC1(CCCC=CCCCOC(=O)N3CC[C@@](C(=O)N[C@@H](CC(=O)O)C(=O)N[C@@H](Cc4csc5ccccc45)C(=O)N[C@@H](CCC(N)=O)C(N)=O)(C3)NC(=O)[C@H](CC(N)=O)NC(=O)[C@H](Cc3ccccc3)NC(=O)[C@H](C)NC(=O)[C@H](C)NC(=O)[C@H](CN(CC(=O)O)CC(F)(F)F)NC(=O)[C@H](Cc3ccsc3)NC1=O)NC(=O)[C@H](CC(C)(C)C)NC(=O)[C@H](CC(=O)O)NC2=O (stereo partly drawn) [I-1001, Ac-PL3-Asp-Npg-B5-3Thi-TfeGA-Ala-Ala-Phe-Asn-PyrS2-Asp-BztA-Gln-NH2]	−1.2% and 7.5% and 3.5%	−1.5% and 9.3% and 4.5%	−7.0% and −2.8% and 6.1%	−8.0% and −7.6% and −5.0%	−3.6% and −4.8% and −7.4%	−6.7% (2×) and −0.7%	IC50 [1, 10]: 5530 nM; Nano-BRET Abs IC50 (uM) [2, 11]: inactive; Nano-BRET Abs IC50 (uM) ([2]; Peptide only): inactive; TCF Reporter Assay Abs IC50 (uM) [3, 11]: inactive; TCF Reporter Assay Abs IC50 (uM) ([3]; Peptide only): inactive
–	–	–	5.9	–	CC(=O)N1CCC[C@]12CC=CCCCC1(CCCC=CCCCOC(=O)N3CC[C@@](C(=O)N[C@@H](Cc4ccccc4C(F)(F)F)C(=O)N[C@@H](Cc4csc5ccccc45)C(=O)N[C@@H](C)C(N)=O)(C3)NC(=O)[C@H](CC(C)C)NC(=O)[C@H](Cc3ccccc3)NC(=O)[C@H](C)NC(=O)[C@H](CCC(N)=O)NC(=O)[C@H](Cn3cc(CC4(C(=O)O)CCCCC4)nn3)NC(=O)[C@H](CC(=O)O)NC1=O)NC(=O)[C@H](CC(C)(C)C)NC(=O)[C@H](CC(=O)O)NC2=O (stereo partly drawn) [I-2520, Ac-PL3-Asp-Npg-B5-Asp-[CH2CChCO2H]TriAzDap-Gln-Ala-Phe-Leu-PyrS2-2F3MeF-BztA-Ala-NH2]	–	–	–	–	–	–	IC50 [1, 12]: 27 nM; IC50 [3, 13]: 5.7 µM
–	–	–	5.6	–	CC(=O)N1CCC[C@]12CC=CCCCC1(CCCC=CCCCOC(=O)N3CC[C@@](C(=O)N[C@@H](Cc4ccccc4C(F)(F)F)C(=O)N[C@@H](Cc4csc5ccccc45)C(=O)N[C@@H](CO)C(N)=O)(C3)NC(=O)[C@H](CC(C)C)NC(=O)[C@H](Cc3ccccc3)NC(=O)[C@H](C)NC(=O)[C@H](C)NC(=O)[C@H](Cn3cc(CC4(C(=O)O)CCCCC4)nn3)NC(=O)[C@H](CC(=O)O)NC1=O)NC(=O)[C@H](CC(C)(C)C)NC(=O)[C@H](CC(=O)O)NC2=O (stereo partly drawn) [I-2521, Ac-PL3-Asp-Npg-B5-Asp-[CH2CChCO2H]TriAzDap-Ala-Ala-Phe-Leu-PyrS2-2F3MeF-BztA-Ser-NH2]	–	–	–	–	–	–	IC50 [1, 12]: 38 nM; IC50 [3, 13]: 3 µM
